What all share (assay type): in vivo
For data set [1], the system named is SW620 (CCL-227, ATCC) MSS colorectal carcinoma xenografts. Description: SW620 MSS CRC xenograft efficacy in nude mice. The conditions noted are these: SW620; TMZ p.o. 5 consecutive days within 21 days cycle (100 mg/kg). How it is done: SW620 (CCL-227, ATCC) [MSS colorectal carcinoma (CRC)] was cultured in DMEM (#1-26F01-I, AMIMED) supplemented with 10% FCS (#2-0-1F30-I, BioConcept), 4 mM L-glutamine (#5-10K50-H, BioConcept) and 1 mM Sodium pyruvate (#5-60F00-H, BioConcept). Cells were passaged by washing first with Dulbecco's PBS without Ca^2+/Mg^2+ (#3-05F29-1, AMIMED), trypsinising cells with Trypsin 0.05% in PBS with EDTA (#5-51F00-H, AMIMED), centrifuging in the respective culture media, and splitting cells into fresh media at a ratio of 1:8, 2 times per week.
Athymic nude mice (Charles River, Germany) were allowed to adapt for 7 days upon arrival at the animal facility and housed in a pathogen-controlled environment (5 mice/Type III cage) with access to food and water ad libitum. Animals were identified with transponders. Studies described in this report were performed according to procedures covered by a permit number issued by the Kantonales Veterinäramt Basel-Stadt.
Subcutaneous tumors were initiated by injecting 5.0×10^6 SW620 tumor cells in 50% Matrigel (#354234, Corning) in HBSS (#H6648, SIGMA) in the right flank of nude mice. The efficacy experiment (n=6), started 11 days post-cell injection.
Compound A and Temozolomide were made-up fresh on a weekly basis and kept at 4° C. and protected from light. Compound A was dissolved in 20% Hydroxypropyl-ß-Cyclodextrine (HP-ß-CD, #H107-100G, SIGMA) in UltraPure™ Water (#10977-035, Invitrogen) and administered p.o. at 10 ml/kg. Temozolomide was dissolved in 30% PEG-400 (#202398-500G, SIGMA) and 70% Dulbecco's PBS without Ca^2+/Mg^2+ (#3-05F29-1, AMIMED) and administered p.o. at 10 mL/kg on 5 consecutive days within a 21 days cycle. Irinotecan was made-up fresh for each treatment once a week by diluting with NaCl 0.9% (#3-06S00-I, BioConcept). The solution was administered i.v. at 5 mL/kg.
(§1) Tumor volumes (TVol), determined from caliper measurements (using the formula I*w2*π/6) were measured two times per week. Tumor response was quantified by the change in tumor volume (endpoint minus starting value in mm^3) as the T/C (the ratio between the tumor volume in the treated group and in the untreated control group). In the case of a tumor regression or to assess the percentage of change in TVol, the tumor response was quantified by the percentage of regression of the starting TVol. The body-weight (BW) of the animal was measured three times per week allowing calculation at any particular time-point relative to the day of initiation of treatment (day 0) of the percentage change in BW (4% BW).
At day 43 post-cell injection, irinotecan was administered intravenously at 15 mg/kg once weekly for 7 weeks in combination with Compound A, also administered from day 43, orally at 120 mg/kg daily for 52 days.
Starting 11 days post-cell injection, temozolomide was administered orally on a 21 day cycle of 5 consecutive days at 100 mg/kg on 5 consecutive days (day 11 to day 15 and day 32 to day 36). At day 43 post-cell injection, to the first group irinotecan was administered intravenously at 15 mg/kg once weekly for 6 weeks, and to the second group irinotecan was administered intravenously at 15 mg/kg once weekly for 6 weeks in combination with Compound A, also administered from day 43, orally at 120 mg/kg daily for 46 days.

Data set [2] can be described thus: Body weight / tolerability in SW620 tumor-bearing nude mice. The note with it: SW620 study; 21-days TMZ cycle. How it is done:
as §1

A short description of data set [3]: Body weight / tolerability in T84 tumor-bearing nude mice. The note with it: T84 study; 28-days TMZ cycle. How it is done:
as §1, with “I*w2*TT/6)” for “I*w2*π/6)”, “T/C.” for “T/C (the ratio between the tumor volume in the treated group and in the untreated control group).”

For data set [4], the system named is SHP-77 (CRL-2195, ATCC) MSS small cell lung carcinoma xenografts. Description: SHP-77 MSS SCLC xenograft efficacy in nude mice. The conditions noted are these: SHP77; TMZ 25 mg/kg p.o. 5 consecutive days within 28 days cycle. How it is done: SHP-77 (CRL-2195, ATCC) is a MSS small cell lung carcinoma (SCLC). It was cultured in RPMI 1640 Medium, GlutaMAX™ (#61870036, GIBCO) supplemented with 10% FCS (#2-O-1F30-I, BioConcept). Cells were passaged by washing first with Dulbecco's PBS without Ca^2+/Mg^2+ (#3-05F29-1, AMIMED), trypsinising cells with Trypsin 0.05% in PBS with EDTA (#5-51F00-H, AMIMED), centrifuging in the respective culture media, and splitting cells into fresh media at a ratio of 1:8, 2 times per week.
Athymic nude mice (Charles River, Germany) were allowed to adapt for 7 days upon arrival at the animal facility and housed in a pathogen-controlled environment (5 mice/Type III cage) with access to food and water ad libitum. Animals were identified with transponders. […]
as §1, with “I*w2*TT/6)” for “I*w2*π/6)”, “T/C.” for “T/C (the ratio between the tumor volume in the treated group and in the untreated control group).”

The nature of data set [5]: Body weight / tolerability in SHP-77 tumor-bearing nude mice. The conditions noted are these: SHP-77 study; single agent. How it is done:
as §1, with “I*w2*TT/6)” for “I*w2*π/6)”, “T/C.” for “T/C (the ratio between the tumor volume in the treated group and in the untreated control group).”

Values joined by “and” are separate entries in the source; they are usually repeats but may differ in a detail not shown here. Equal values may be shown once.

`Cn1nnc2c(C(N)=O)ncn2c1=O` [temozolomide]: in data set [1], the “tumor regression after 1 cycle of temozolomide” value is 30-50% and 40%. The figures for the body weight change entry in data set [2] and in data set [3] were “dose-dependent body weight loss but mice always recovered at the end of the 21-days cycle” and “slight body weight loss but mice always recovered at the end of the 28-days cycle”, respectively. Moreover, the “tumor regression after 2 cycles” value in data set [4] was 90%. Moreover, the tolerability entry in data set [5] was “well tolerated”.

The values above are taken from US20240197715A1, “PHARMACEUTICAL COMBINATIONS AND USES THEREOF” (NOVARTIS AG, priority 2022, published 2024).
